Measured values: ChEMBL document CHEMBL5338758, “Design, Synthesis, and Bioevaluation of Novel MyD88 Inhibitor c17 against Acute Lung Injury Derived from the Virtual Screen” (J Med Chem, 2023)
The source made the active and inactive calls. The calls are words filed in the database; no cut-off is given here.

How the values were obtained:
[1] = system: J774.A1; assay: Anti-inflammatory activity in mouse J774.A1 cells assessed as inhibition of LPS-induced TNF-alpha production at 10 uM pre-stimulated with LPS for 24 hrs followed by compound addition and measured after 0.5 hrs by ELISA analysis relative to control; type: functional
[2] = system: J774.A1; assay: Anti-inflammatory activity in mouse J774.A1 cells assessed as inhibition of LPS-induced IL-6 production at 10 uM pre-stimulated with LPS for 24 hrs followed by compound addition and measured after 0.5 hrs by ELISA analysis relative to control; type: functional
[3] = system: J774.A1; assay: Anti-inflammatory activity in mouse J774.A1 cells assessed as suppression of LPS-induced IL-6 production by ELISA analysis; type: functional, cell-based
[4] = molecular target: T1, Myeloid differentiation primary response protein MyD88 (Homo sapiens, UniProt Q99836); assay: Binding affinity to human MyD88 TIR domain assessed as equilibrium dissociation constant by SPR analysis
T1 sequence (Q99836 whole entry, the tested form may be a part): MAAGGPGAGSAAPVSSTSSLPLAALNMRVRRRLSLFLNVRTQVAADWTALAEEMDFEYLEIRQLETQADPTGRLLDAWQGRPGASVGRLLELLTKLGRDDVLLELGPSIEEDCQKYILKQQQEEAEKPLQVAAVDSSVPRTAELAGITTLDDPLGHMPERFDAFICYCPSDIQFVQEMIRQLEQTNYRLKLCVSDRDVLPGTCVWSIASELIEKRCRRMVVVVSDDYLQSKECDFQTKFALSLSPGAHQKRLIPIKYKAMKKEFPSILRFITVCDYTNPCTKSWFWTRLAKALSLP

[5] = molecular target: T1, Myeloid differentiation primary response protein MyD88; assay: Binding affinity to human MyD88 TIR domain by SPR analysis; conditions: dose 1.19-5.94 10^-5M
[6] = system: J774.A1; assay: Cytotoxicity against mouse J774.A1 cells assessed as reduction in cell survival incubated for 24 hrs by MTT assay; type: toxicity, cell-based; conditions: j774.a1, 24 h
[7] = system: J774.A1; assay: Anti-inflammatory activity in mouse J774.A1 cells assessed as inhibition of LPS-induced TNF-alpha production pre-stimulated with LPS for 24 hrs followed by compound addition and measured after 0.5 hrs by ELISA analysis; type: functional, cell-based
[8] = system: J774.A1; assay: Anti-inflammatory activity in mouse J774.A1 cells assessed as inhibition of LPS-induced IL-6 production pre-stimulated with LPS for 24 hrs followed by compound addition and measured after 0.5 hrs by ELISA analysis; type: functional, cell-based

Structure (SMILES) | inhibition at 10 µM [1] [%] | inhibition at 10 µM [2] [%] | further results
COCCN1CCN(c2ccc(S(=O)(=O)Nc3ccc(OC)nc3)cc2[N+](=O)[O-])CC1 | 1.16 | 47.3 | –
O=C(Nc1ccccc1)c1ccc(N2CCN(Cc3cccc([N+](=O)[O-])c3)CC2)c([N+](=O)[O-])c1 | – | – | inhibition [1]: inactive; inhibition [2]: inactive
O=c1nc(-c2ccc(CN3CCN(CCO)CC3)cc2)cc(-c2ccc(Br)cc2)[nH]1 | 29.6 | 7.52 | –
COc1ccc(NS(=O)(=O)c2ccc(N3CCN(CCO)CC3)c([N+](=O)[O-])c2)cn1 | – | 22.2 | inhibition [1]: inactive
COc1ccc(CN2CCN(c3ccc(S(=O)(=O)Nc4ccc(OC)nc4)cc3[N+](=O)[O-])CC2)cc1 | 27.9 | 63.5 | –
O=[N+]([O-])c1cc(S(=O)(=O)NCc2ccccn2)ccc1N1CCN(CCO)CC1 | 6.63 | 37.8 | –
COCCN1CCN(Cc2ccc(-c3cc(-c4ccc(OC)cc4)[nH]c(=O)n3)cc2)CC1 | 40.8 | 14.8 | –
O=c1cc(-c2ccncc2)nc(-c2ccc(CN3CCN(CCO)CC3)cc2)[nH]1 | 8.59 | 33.5 | Activity [3]: Active; Kd [4]: 795 µM
O=c1[nH]c(-c2ccc(CN3CCN(c4ccc([N+](=O)[O-])cc4)CC3)cc2)nc2ccccc12 | – | 44.1 | inhibition [1]: inactive
CC(=O)N1CCN(Cc2ccc3c(=O)[nH]c(-c4ccccc4)nc3c2)CC1 | – | 26 | inhibition [1]: inactive
COc1ccc(-c2cc(-c3ccc(CN4CCN(c5ccc([N+](=O)[O-])cc5)CC4)cc3)nc(=O)[nH]2)cc1 | 38.7 | 35 | –
COCCN1CCN(c2ccc(S(=O)(=O)NCc3ccccn3)cc2[N+](=O)[O-])CC1 | 11.8 | 50.4 | –
O=c1[nH]c(-c2ccccc2)nc2cc(CN3CCN(c4ccc([N+](=O)[O-])cc4)CC3)ccc12 | – | – | inhibition [1]: inactive; inhibition [2]: inactive
O=C(NCc1ccccn1)c1ccc(N2CCN(Cc3ccccc3)CC2)c([N+](=O)[O-])c1 | 35.4 | 36.4 | –
COc1ccc(NS(=O)(=O)c2ccc(N3CCN(c4cnc(NC(C)=O)s4)CC3)c([N+](=O)[O-])c2)cn1 | 12.2 | 39.9 | –
O=C(Nc1ccccc1)c1ccc(N2CCN(c3ccc([N+](=O)[O-])cc3)CC2)c([N+](=O)[O-])c1 | – | 14.9 | inhibition [1]: inactive
COCCN1CCN(Cc2ccc(-c3nc4ccccc4c(=O)[nH]3)cc2)CC1 | 22.6 | 34 | –
O=[N+]([O-])c1cc(S(=O)(=O)Nc2ccccc2)ccc1N1CCN(CCO)CC1 | 7.89 | 55.6 | –
O=c1nc(-c2ccc(CNc3nc4ccccc4s3)cc2)cc(-c2ccccc2)[nH]1 | 53.3 | 79.5 | Activity [5]: inactive; Activity [6]: Non-Toxic; IC50 [7]: 17.7 µM; IC50 [8]: 0.53 µM
O=C(NCc1ccccn1)c1ccc(N2CCN(Cc3cccc([N+](=O)[O-])c3)CC2)c([N+](=O)[O-])c1 | 27 | 33.1 | –
COc1ccc(-c2cc(-c3ccc(CN4CCN(CCOCCO)CC4)cc3)nc(=O)[nH]2)cc1 | 27.2 | 17.1 | –
COc1ccc(NS(=O)(=O)c2ccc(N3CCN(Cc4ccccc4)CC3)c([N+](=O)[O-])c2)cn1 | 27.7 | 55.1 | –
O=[N+]([O-])c1cccc(CN2CCN(c3ccc(S(=O)(=O)Nc4ccccc4)cc3[N+](=O)[O-])CC2)c1 | 33.9 | 71.2 | –

Structure (SMILES) | inhibition at 10 µM [1] [%] | inhibition at 10 µM [2] [%] | further results
COCCN1CCN(Cc2ccc3c(=O)[nH]c(-c4ccccc4)nc3c2)CC1 | – | 29.2 | inhibition [1]: inactive
COCCN1CCN(c2ccc(C(=O)Nc3ccccc3)cc2[N+](=O)[O-])CC1 | 26.9 | 47.8 | –
O=c1nc(-c2ccc(CN3CCN(CCOCCO)CC3)cc2)cc(-c2ccccc2)[nH]1 | 14.2 | 19.3 | –
O=C(Nc1cccc2ccccc12)c1ccc(N2CCN(Cc3cccc([N+](=O)[O-])c3)CC2)c([N+](=O)[O-])c1 | 39.8 | 62.2 | –
COc1ccc(NS(=O)(=O)c2ccc(N3CCN(Cc4ccc([N+](=O)[O-])cc4)CC3)c([N+](=O)[O-])c2)cn1 | 37.9 | 71.8 | IC50 [7]: 14.1 µM; IC50 [8]: 3.4 µM
CCCCCNCc1ccc(-c2cc(-c3ccccc3)[nH]c(=O)n2)cc1 | 16.1 | 17.9 | –
O=C(Nc1ccccc1)c1ccc(N2CCN(CCO)CC2)c([N+](=O)[O-])c1 | 1.01 | 47.5 | –
COc1ccc(-c2cc(-c3ccc(CN4CCN(CCO)CC4)cc3)nc(=O)[nH]2)cc1 | 33.7 | 8.43 | –
O=c1nc(-c2ccc(CN3CCN(CCO)CC3)cc2)cc(-c2ccccc2)[nH]1 | 17.9 | 18.2 | –
O=c1nc(-c2ccc(CN3CCN(CCOCCO)CC3)cc2)cc(-c2ccc(Br)cc2)[nH]1 | 22.6 | 58.4 | –
COc1ccc(NS(=O)(=O)c2ccc(N3CCN(c4ncccn4)CC3)c([N+](=O)[O-])c2)cn1 | 22.3 | 45 | –
CCCCCNCc1ccc(-c2cc(-c3ccc(OC)cc3)[nH]c(=O)n2)cc1 | 24.1 | 35.3 | –
COCCN1CCN(Cc2ccc(-c3cc(-c4ccccc4)[nH]c(=O)n3)cc2)CC1 | 25.6 | – | inhibition [2]: inactive
O=c1[nH]c(-c2ccc(CN3CCN(CCO)CC3)cc2)nc2ccccc12 | – | 57.1 | inhibition [1]: inactive
COCCN1CCN(Cc2ccc(-c3cc(-c4ccc(Br)cc4)[nH]c(=O)n3)cc2)CC1 | 41.1 | 46.1 | –
CC(=O)N1CCN(Cc2ccc(-c3cc(-c4ccc(Br)cc4)[nH]c(=O)n3)cc2)CC1 | – | – | inhibition [1]: inactive; inhibition [2]: inactive
COCCN1CCN(c2ccc(S(=O)(=O)Nc3ccccc3)cc2[N+](=O)[O-])CC1 | 16.9 | 60.3 | –
O=c1[nH]c(-c2ccccc2)nc2cc(CN3CCN(CCO)CC3)ccc12 | – | 46 | inhibition [1]: inactive
O=C(NCc1ccccn1)c1ccc(N2CCN(Cc3ccc([N+](=O)[O-])cc3)CC2)c([N+](=O)[O-])c1 | 37 | 57.6 | –
CC(=O)N1CCN(Cc2ccc(-c3nc4ccccc4c(=O)[nH]3)cc2)CC1 | 11.9 | 53.7 | –
O=c1nc(-c2ccc(CN3CCN(c4ccc([N+](=O)[O-])cc4)CC3)cc2)cc(-c2ccccc2)[nH]1 | 50.6 | 15.7 | –
O=C(Nc1ccccc1)c1ccc(N2CCN(Cc3ccc([N+](=O)[O-])cc3)CC2)c([N+](=O)[O-])c1 | – | – | inhibition [1]: inactive; inhibition [2]: inactive
O=c1[nH]c(-c2ccccc2)nc2cc(CN3CCN(CCOCCO)CC3)ccc12 | – | 24.1 | inhibition [1]: inactive
